Test results as given in publication PMC5218480 (PLoS ONE, 2017).

Tested on: MV-4-11 cells
Test: Gene expression microarray analysis (Affymetrix PrimeView) and GSEA
Assay type: cell-based, human
Set-up: RFU PODN (11730768_x_at) / Fold change /veh PODN (11730768_x_at) / RFU LINC00158 (11744669_a_at) / Fold change /veh LINC00158 (11744669_a_at) / RFU DUSP10 (11751237_a_at) / Fold change /veh DUSP10 (11751237_a_at) / RFU ID3 (11757404_x_at) / Fold change /veh ID3 (11757404_x_at) / RFU PLEKHG5 (11737974_s_at) / Fold change /veh PLEKHG5 (11737974_s_at) / RFU LRRC4B (11730491_at) / Fold change /veh LRRC4B (11730491_at) / RFU GIMAP4 (11747438_a_at) / Fold change /veh GIMAP4 (11747438_a_at) / RFU KRT8 (11758183_x_at) / Fold change /veh KRT8 (11758183_x_at) / RFU CNN1 (11734310_a_at) / Fold change /veh CNN1 (11734310_a_at) / RFU VPS37D (11726825_at) / Fold change /veh VPS37D (11726825_at) / RFU C10orf10 (11716522_x_at) / Fold change /veh C10orf10 (11716522_x_at) / RFU KIR2DL2 /// KIR2DL4 /// KIR2DL5A /// KIR2DL5B /// KIR2DS1 /// KIR2DS2 /// KIR2DS3 /// KIR2DS4 /// KIR3DL3 /// KIR3DL3 /// KIR3DS1 (11738374_at) / Fold change /veh KIR2DL2 /// KIR2DL4 /// KIR2DL5A /// KIR2DL5B /// KIR2DS1 /// KIR2DS2 /// KIR2DS3 /// KIR2DS4 /// KIR3DL3 /// KIR3DL3 /// KIR3DS1 (11738374_at) / RFU C1QL1 (11718748_at) / Fold change /veh C1QL1 (11718748_at) / RFU TMPRSS4 (11747572_a_at) / Fold change /veh TMPRSS4 (11747572_a_at) / RFU HAMP (11756126_x_at) / Fold change /veh HAMP (11756126_x_at) / RFU RNFT2 (11725882_a_at) / Fold change /veh RNFT2 (11725882_a_at) / RFU NR4A2 (11747474_a_at) / Fold change /veh NR4A2 (11747474_a_at) / RFU ABCC12 (11746883_a_at) / Fold change /veh ABCC12 (11746883_a_at) / RFU TMEM136 (11760407_x_at) / Fold change /veh TMEM136 (11760407_x_at) / RFU CLDN22 /// WWC2 (11732394_at) / Fold change /veh CLDN22 /// WWC2 (11732394_at) / RFU HLA-DPB1 (11760878_x_at) / Fold change /veh HLA-DPB1 (11760878_x_at) / RFU SPINT1 (11716480_a_at) / Fold change /veh SPINT1 (11716480_a_at) / RFU GAP43 (11754022_s_at) / Fold change /veh GAP43 (11754022_s_at) / RFU A4GNT (11735810_at) / Fold change /veh A4GNT (11735810_at) / RFU PRB3 (11715151_x_at) / Fold change /veh PRB3 (11715151_x_at) / RFU TUBB4B (11761932_at) / Fold change /veh TUBB4B (11761932_at) / RFU CAPN14 (11732068_a_at) / Fold change /veh CAPN14 (11732068_a_at) / RFU TMCC2 (11721928_a_at) / Fold change /veh TMCC2 (11721928_a_at) / RFU IRGQ (11745062_a_at) / Fold change /veh IRGQ (11745062_a_at) / RFU FAM174B (11720279_a_at) / Fold change /veh FAM174B (11720279_a_at) / RFU TMPRSS4 (11748680_a_at) / Fold change /veh TMPRSS4 (11748680_a_at) / RFU FAM212B (11763350_a_at) / Fold change /veh FAM212B (11763350_a_at) / RFU PLEKHG5 (11743358_a_at) / Fold change /veh PLEKHG5 (11743358_a_at) / RFU ZSCAN30 (11745921_a_at) / Fold change /veh ZSCAN30 (11745921_a_at) / RFU CMKLR1 (11741424_a_at) / Fold change /veh CMKLR1 (11741424_a_at) / RFU LOC101060620 /// MAPK8IP1 (11723275_at) / Fold change /veh LOC101060620 /// MAPK8IP1 (11723275_at) / RFU SPTSSB (11747773_x_at) / Fold change /veh SPTSSB (11747773_x_at) / RFU PRSS12 (11739890_at) / Fold change /veh PRSS12 (11739890_at) / RFU BIN1 (11741810_x_at) / Fold change /veh BIN1 (11741810_x_at) / RFU WNT11 (11732464_a_at) / Fold change /veh WNT11 (11732464_a_at) / RFU C10orf10 (11716521_a_at) / Fold change /veh C10orf10 (11716521_a_at) / RFU C5orf56 (11738089_at) / Fold change /veh C5orf56 (11738089_at) / RFU CYB561 (11721691_x_at) / Fold change /veh CYB561 (11721691_x_at) / RFU ANKRD19P (11752326_a_at) / Fold change /veh ANKRD19P (11752326_a_at) / RFU OR2T12 /// OR2T33 /// OR2T8 (11738714_s_at) / Fold change /veh OR2T12 /// OR2T33 /// OR2T8 (11738714_s_at) / RFU VCAN (11748164_a_at) / Fold change /veh VCAN (11748164_a_at) / RFU JSRP1 (11732532_at) / Fold change /veh JSRP1 (11732532_at) / RFU KRTAP10-11 (11738290_x_at) / Fold change /veh KRTAP10-11 (11738290_x_at) / RFU MYO3A (11730013_a_at) / Fold change /veh MYO3A (11730013_a_at) / RFU EBF3 (11725865_a_at) / Fold change /veh EBF3 (11725865_a_at) / RFU CAMK2N1 (11719241_x_at) / Fold change /veh CAMK2N1 (11719241_x_at) / RFU C5orf56 (11738088_a_at) / Fold change /veh C5orf56 (11738088_a_at) / RFU OLFML3 (11715873_a_at) / Fold change /veh OLFML3 (11715873_a_at) / RFU LOC100653217 /// NTM (11731650_a_at) / Fold change /veh LOC100653217 /// NTM (11731650_a_at) / RFU MAPK11 (11762145_a_at) / Fold change /veh MAPK11 (11762145_a_at) / RFU FIZ1 (11724087_x_at) / Fold change /veh FIZ1 (11724087_x_at) / RFU OASL (11726364_x_at) / Fold change /veh OASL (11726364_x_at) / RFU SOX15 (11748057_x_at) / Fold change /veh SOX15 (11748057_x_at) / RFU CD79A (11719716_a_at) / Fold change /veh CD79A (11719716_a_at) / RFU HIST1H1D (11736915_at) / Fold change /veh HIST1H1D (11736915_at) / RFU CASKIN2 (11723855_a_at) / Fold change /veh CASKIN2 (11723855_a_at) / RFU LOC730098 (11760151_x_at) / Fold change /veh LOC730098 (11760151_x_at) / RFU OR4N2 (11742367_at) / Fold change /veh OR4N2 (11742367_at) / RFU PRRT2 (11749266_a_at) / Fold change /veh PRRT2 (11749266_a_at) / RFU SNX32 (11753110_a_at) / Fold change /veh SNX32 (11753110_a_at) / RFU CDHR5 (11726645_a_at) / Fold change /veh CDHR5 (11726645_a_at) / RFU RCAN1 (11760418_a_at) / Fold change /veh RCAN1 (11760418_a_at) / RFU FAM167A (11723789_a_at) / Fold change /veh FAM167A (11723789_a_at) / RFU FAM26E (11764081_at) / Fold change /veh FAM26E (11764081_at) / RFU ISYNA1 (11749810_s_at) / Fold change /veh ISYNA1 (11749810_s_at) / RFU ACY1 (11761880_at) / Fold change /veh ACY1 (11761880_at) / RFU 11764098_at / Fold change /veh 11764098_at / RFU SAMD14 (11745864_x_at) / Fold change /veh SAMD14 (11745864_x_at) / RFU NPB (11741838_a_at) / Fold change /veh NPB (11741838_a_at) / RFU TMPRSS6 (11731388_a_at) / Fold change /veh TMPRSS6 (11731388_a_at) / RFU KRTAP10-2 (11738614_at) / Fold change /veh KRTAP10-2 (11738614_at) / RFU ARHGAP8 /// PRR5-ARHGAP8 (11727945_x_at) / Fold change /veh ARHGAP8 /// PRR5-ARHGAP8 (11727945_x_at) / RFU KRTAP5-7 /// NADSYN1 (11734609_at) / Fold change /veh KRTAP5-7 /// NADSYN1 (11734609_at) / RFU RASL12 (11751679_a_at) / Fold change /veh RASL12 (11751679_a_at) / RFU CDKN2B (11736163_a_at) / Fold change /veh CDKN2B (11736163_a_at) / RFU PRF1 (11729649_at) / Fold change /veh PRF1 (11729649_at) / RFU, ZNF638 /// ZNF638-IT1 / Fold change vs veh, ZNF638 /// ZNF638-IT1 / RFU, PANK3 / Fold change vs veh, PANK3 / RFU, SH3YL1 / Fold change vs veh, SH3YL1 / RFU, ZEB2 / Fold change vs veh, ZEB2 / RFU, NRIP1 / Fold change vs veh, NRIP1 / RFU, PTTG1IP / Fold change vs veh, PTTG1IP / RFU, CAPN2 / Fold change vs veh, CAPN2 / RFU, MED14 / Fold change vs veh, MED14 / RFU, SNORA58 / Fold change vs veh, SNORA58 / RFU, C1orf63 / Fold change vs veh, C1orf63 / RFU, LRRFIP1 / Fold change vs veh, LRRFIP1 / RFU, NDUFAF7 / Fold change vs veh, NDUFAF7 / RFU, SLC12A2 / Fold change vs veh, SLC12A2 / RFU, IBTK / Fold change vs veh, IBTK / RFU, ESF1 / Fold change vs veh, ESF1 / Fold change vs veh, TMEM50B / RFU, TAOK1 / Fold change vs veh, TAOK1 / RFU, ACBD3 / Fold change vs veh, ACBD3 / RFU, TMA16 / Fold change vs veh, TMA16 / RFU, RWDD3 / Fold change vs veh, RWDD3 / RFU, BCAT1 / Fold change vs veh, BCAT1 / RFU, EDEM3 / Fold change vs veh, EDEM3 / RFU, TMEM33 / Fold change vs veh, TMEM33 / RFU, WDR75 / Fold change vs veh, WDR75 / RFU, AHCTF1 / Fold change vs veh, AHCTF1 / RFU, TFRC / Fold change vs veh, TFRC / RFU, ZDHHC17 / Fold change vs veh, ZDHHC17 / RFU, NOM1 / Fold change vs veh, NOM1 / RFU, ARL8B / Fold change vs veh, ARL8B / RFU, ZBTB11 / Fold change vs veh, ZBTB11 / RFU, TAMM41 / Fold change vs veh, TAMM41 / RFU, KIAA1704 /// LOC100996395 / Fold change vs veh, KIAA1704 /// LOC100996395 / RFU, ING1 / Fold change vs veh, ING1 / RFU, TRMT61B / Fold change vs veh, TRMT61B / RFU, FUBP3 / Fold change vs veh, FUBP3 / RFU, TP53 / Fold change vs veh, TP53 / RFU, TNKS2 / Fold change vs veh, TNKS2 / RFU, ZFP14 / Fold change vs veh, ZFP14 / RFU, ACTR2 / Fold change vs veh, ACTR2 / RFU, PPP3R1 / Fold change vs veh, PPP3R1 / RFU, PIK3R1 / Fold change vs veh, PIK3R1 / RFU, HNRNPA1 / Fold change vs veh, HNRNPA1 / RFU, RNF170 / Fold change vs veh, RNF170 / RFU, ZNF28 / Fold change vs veh, ZNF28 / RFU, RNGTT / Fold change vs veh, RNGTT / RFU, OGT / Fold change vs veh, OGT / RFU, BRD1 / Fold change vs veh, BRD1 / RFU, MARS / Fold change vs veh, MARS / RFU, ZNF655 / Fold change vs veh, ZNF655 / RFU, FAHD1 / Fold change vs veh, FAHD1 / RFU, BDP1 / Fold change vs veh, BDP1 / RFU, LRRCC1 / Fold change vs veh, LRRCC1 / RFU, ARID1A / Fold change vs veh, ARID1A / RFU, ZNF146 / Fold change vs veh, ZNF146 / RFU, ZNF330 / Fold change vs veh, ZNF330 / RFU, GPN3 / Fold change vs veh, GPN3 / RFU, C9orf123 / Fold change vs veh, C9orf123 / RFU, N4BP2L2 / Fold change vs veh, N4BP2L2 / RFU, ARFIP1 / Fold change vs veh, ARFIP1 / RFU, FAM179B / Fold change vs veh, FAM179B / RFU, BCL10 / Fold change vs veh, BCL10 / RFU, UHRF1BP1L / Fold change vs veh, UHRF1BP1L / RFU, BET1 / Fold change vs veh, BET1 / RFU, CNOT2 / Fold change vs veh, CNOT2 / RFU, ZNF268 / Fold change vs veh, ZNF268 / Fold change vs veh, ZNF507 / RFU, DGCR2 / Fold change vs veh, DGCR2 / RFU, WDSUB1 / Fold change vs veh, WDSUB1 / Fold change vs veh, HSP90B1 /// MIR3652 / RFU, ADSS / Fold change vs veh, ADSS / RFU, GK / Fold change vs veh, GK / RFU, ZNF148 / Fold change vs veh, ZNF148 / RFU, TAF9 / Fold change vs veh, TAF9 / RFU, SLC1A5 / Fold change vs veh, SLC1A5 / RFU, SLMO2 / Fold change vs veh, SLMO2 / RFU, ABCC4 / Fold change vs veh, ABCC4 / RFU, LOC101060439 /// RAP1B / Fold change vs veh, LOC101060439 /// RAP1B / RFU, RFX7 / Fold change vs veh, RFX7 / RFU, GTPBP10 / Fold change vs veh, GTPBP10 / RFU, CNEP1R1 / Fold change vs veh, CNEP1R1 / RFU, BIVM-ERCC5 /// ERCC5 / Fold change vs veh, BIVM-ERCC5 /// ERCC5 / RFU, ILF3 / Fold change vs veh, ILF3 / RFU 11762660_at / Fold change /veh 11762660_at / RFU VCAN (11757783_s_at) / Fold change /veh VCAN (11757783_s_at) / RFU DDX43 (11728927_at) / Fold change /veh DDX43 (11728927_at) / RFU KRT8 (11758188_x_at) / Fold change /veh KRT8 (11758188_x_at) / RFU NKD1 (11759106_at) / Fold change /veh NKD1 (11759106_at) / RFU SRD5A1 (11742802_a_at) / Fold change /veh SRD5A1 (11742802_a_at) / RFU TPSAB1 /// TPSB2 (11721975_s_at) / Fold change /veh TPSAB1 /// TPSB2 (11721975_s_at) / RFU GSTM3 (11746129_a_at) / Fold change /veh GSTM3 (11746129_a_at) / RFU IL23R (11737362_x_at) / Fold change /veh IL23R (11737362_x_at) / RFU TMEM51 (11727254_a_at) / Fold change /veh TMEM51 (11727254_a_at) / RFU PIWIL2 (11732686_x_at) / Fold change /veh PIWIL2 (11732686_x_at) / RFU ORM1 (11744905_x_at) / Fold change /veh ORM1 (11744905_x_at) / RFU CCDC152 (11743942_at) / Fold change /veh CCDC152 (11743942_at) / RFU ECM1 (11717891_a_at) / Fold change /veh ECM1 (11717891_a_at) / RFU IL23R (11748794_a_at) / Fold change /veh IL23R (11748794_a_at) / RFU TNFAIP8L3 (11732012_x_at) / Fold change /veh TNFAIP8L3 (11732012_x_at) / RFU MBOAT4 (11741988_at) / Fold change /veh MBOAT4 (11741988_at) / RFU 11764193_at / Fold change /veh 11764193_at / RFU TMEM53 (11763286_at) / Fold change /veh TMEM53 (11763286_at) / RFU MAGEB2 (11727129_at) / Fold change /veh MAGEB2 (11727129_at) / RFU TMEM200A (11744735_a_at) / Fold change /veh TMEM200A (11744735_a_at) / RFU CCDC152 (11751479_a_at) / Fold change /veh CCDC152 (11751479_a_at) / RFU FAM211A (11726209_a_at) / Fold change /veh FAM211A (11726209_a_at) / RFU RGS16 (11746705_a_at) / Fold change /veh RGS16 (11746705_a_at) / RFU VCAN (11755009_s_at) / Fold change /veh VCAN (11755009_s_at) / RFU RHOB (11743442_s_at) / Fold change /veh RHOB (11743442_s_at) / RFU RGS16 (11720943_a_at) / Fold change /veh RGS16 (11720943_a_at) / RFU RGS16 (11720944_at) / Fold change /veh RGS16 (11720944_at) / RFU, VPS4B / Fold change vs veh, VPS4B / RFU, CREB1 / Fold change vs veh, CREB1 / RFU, DNAJC13 / Fold change vs veh, DNAJC13 / RFU, GNAQ / Fold change vs veh, GNAQ / RFU, CDK5R1 / Fold change vs veh, CDK5R1 / RFU, ZRANB3 / Fold change vs veh, ZRANB3 / RFU, CUL4A / Fold change vs veh, CUL4A / RFU, CCNY / Fold change vs veh, CCNY / RFU, UFL1 / Fold change vs veh, UFL1 / RFU, COG3 / Fold change vs veh, COG3 / RFU, DIAPH2 / Fold change vs veh, DIAPH2 / RFU, SKA2 / Fold change vs veh, SKA2 / RFU, AFF3 / Fold change vs veh, AFF3 / RFU, LMF1 / Fold change vs veh, LMF1 / RFU, IPO11 / Fold change vs veh, IPO11 / RFU, DFFB / Fold change vs veh, DFFB / RFU, FOXP1 / Fold change vs veh, FOXP1 / RFU, CARD8 / Fold change vs veh, CARD8 / RFU, STRN3 / Fold change vs veh, STRN3 / RFU, ADK / Fold change vs veh, ADK / RFU, RASSF2 / Fold change vs veh, RASSF2 / RFU, WIPF1 / Fold change vs veh, WIPF1 / RFU, LARP1B / Fold change vs veh, LARP1B / RFU, RASA1 / Fold change vs veh, RASA1 / RFU, RB1 / Fold change vs veh, RB1 / RFU, PPFIA1 / Fold change vs veh, PPFIA1 / RFU, MAT2A / Fold change vs veh, MAT2A / RFU, CCT5 / Fold change vs veh, CCT5 / RFU, WDR92 / Fold change vs veh, WDR92 / RFU, CUX1 / Fold change vs veh, CUX1 / RFU, TTC7A / Fold change vs veh, TTC7A / RFU, TMEM135 / Fold change vs veh, TMEM135 / RFU, DEPTOR / Fold change vs veh, DEPTOR / RFU, CPM / Fold change vs veh, CPM / RFU, DNAJB6 / Fold change vs veh, DNAJB6 / RFU, CACNA2D3 / Fold change vs veh, CACNA2D3 / RFU, DTX4 / Fold change vs veh, DTX4 / RFU, TFCP2 / Fold change vs veh, TFCP2 / RFU, GMCL1 /// GMCL1P1 / Fold change vs veh, GMCL1 /// GMCL1P1 / RFU, AEBP2 / Fold change vs veh, AEBP2 / RFU, SNHG1 /// SNORD22 /// SNORD25 /// SNORD26 /// SNORD27 /// SNORD28 /// SNORD29 /// SNORD31 / Fold change vs veh, SNHG1 /// SNORD22 /// SNORD25 /// SNORD26 /// SNORD27 /// SNORD28 /// SNORD29 /// SNORD31 / Fold change (Aza/veh), C12orf56 (ProbeSet 11735607_a_at) / Fold change (ACY-1035/veh), C12orf56 (ProbeSet 11735607_a_at) / Fold change (Aza/veh), FGFR1OP (ProbeSet 11751329_s_at) / Fold change (ACY-1035/veh), FGFR1OP (ProbeSet 11751329_s_at) / Fold change (Aza/veh), VPS36 (ProbeSet 11739960_a_at) / Fold change (ACY-1035/veh), VPS36 (ProbeSet 11739960_a_at) / RFU SYPL1 (11715823_x_at) / Fold change /veh SYPL1 (11715823_x_at) / RFU IGFBP7 (11715501_s_at) / Fold change /veh IGFBP7 (11715501_s_at) / RFU REEP3 (11722064_at) / Fold change /veh REEP3 (11722064_at) / RFU IGLL1 (11728026_x_at) / Fold change /veh IGLL1 (11728026_x_at): dose or concentration left out as unconfirmed
Conditions: ProbeSet 11755425_a_at; LIST B

Compound: Nc1ccc(-c2cccs2)cc1NC(=O)c1ccc2c(c1)cc(C1CC1)n2CCN1CCOCC1 [ACY-1035]
- Fold change vs veh, FAM179B: 1.02
